These results are taken from patent publication US20260234147A1 (priority 2023, published 2026).

Data set [1] concerns the target T1, hMOR (Homo sapiens, UniProt P35372). The experiment in a line: Cyclic adenosine 3′,5′-monophosphate (cAMP) assay in hMOR-CHO cells. The class given is cell-based. The note with it: N=1, control agonist DAMGO.
Data set [2] concerns the target hKOR (Homo sapiens, UniProt P41145). Put plainly: Radioligand binding assay (Eurofins Cerep), [3H]U69,593 displacement. The settings on record: read-out: KOR Ki ± SEM.
Data set [3] is described as follows: Metabolic stability in rat liver microsomes. The note with it: for RLM stability: rat liver microsomes 1 mg/ml, substrate 1 μM, NADPH, 37° C. The class given is in vitro ADME. In a few lines: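 Compounds at 1 μM were incubated in triplicate with rat liver microsomes (1 mg protein/ml) and 1 mM NADPH in 50 mM phosphate buffer pH 7.4 at 37 °C. Samples taken up to 60 min were analysed by UPLC-MS/MS. Intrinsic clearance came from substrate-depletion half-life and was scaled to hepatic CLint using 45 mg/g MPPGL and 40 g/kg liver.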

In data set [4] the target is T2, α2A adrenergic receptor (Homo sapiens, UniProt P08913).
T2 construct: Eurofins Cerep (contract screening)
T2 sequence (P08913 1-465): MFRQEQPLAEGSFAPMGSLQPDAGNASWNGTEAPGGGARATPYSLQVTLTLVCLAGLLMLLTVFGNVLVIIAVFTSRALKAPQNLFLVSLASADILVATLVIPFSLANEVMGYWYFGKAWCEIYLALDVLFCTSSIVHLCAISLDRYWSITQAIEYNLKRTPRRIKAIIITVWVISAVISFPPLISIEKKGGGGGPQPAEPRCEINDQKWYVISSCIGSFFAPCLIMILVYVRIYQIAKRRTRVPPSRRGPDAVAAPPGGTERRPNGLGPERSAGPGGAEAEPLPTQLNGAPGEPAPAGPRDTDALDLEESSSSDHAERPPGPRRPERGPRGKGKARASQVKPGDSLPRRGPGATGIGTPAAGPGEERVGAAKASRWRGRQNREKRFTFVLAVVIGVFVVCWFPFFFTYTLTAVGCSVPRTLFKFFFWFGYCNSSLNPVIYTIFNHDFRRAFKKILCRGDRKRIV
The experiment in a line: Radioligand binding assay (Eurofins Cerep), [3H]RX 821002 displacement.

In data set [5] the target is T1, hMOR. The experiment in a line: Radioligand binding assay (Eurofins Cerep), [3H]DAMGO displacement.
Data set [6] concerns the target hDOR (Homo sapiens, UniProt P41143). Put plainly: Radioligand binding assay (Eurofins Cerep), [3H]DADLE displacement.
In data set [7] the target is T3, α2C adrenergic receptor (Homo sapiens, UniProt P18825).
T3 construct: Eurofins Cerep (contract screening)
T3 sequence (P18825 1-462): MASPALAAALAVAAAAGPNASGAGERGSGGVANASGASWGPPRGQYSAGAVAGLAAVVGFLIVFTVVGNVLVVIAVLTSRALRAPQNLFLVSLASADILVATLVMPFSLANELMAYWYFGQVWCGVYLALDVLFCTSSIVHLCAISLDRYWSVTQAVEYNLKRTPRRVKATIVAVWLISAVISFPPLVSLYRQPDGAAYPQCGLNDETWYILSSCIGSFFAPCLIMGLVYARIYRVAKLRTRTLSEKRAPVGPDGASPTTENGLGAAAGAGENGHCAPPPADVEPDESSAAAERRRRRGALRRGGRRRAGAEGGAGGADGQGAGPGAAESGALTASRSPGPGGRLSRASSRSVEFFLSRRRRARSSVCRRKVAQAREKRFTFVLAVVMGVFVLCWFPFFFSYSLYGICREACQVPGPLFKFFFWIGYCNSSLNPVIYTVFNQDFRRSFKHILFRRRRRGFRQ
Put plainly: Radioligand binding assay (Eurofins Cerep), [3H]RX 821002 displacement. The note with it: Table A1, data summary #1; read-out: Alpha2C Ki ± SEM.

The target of data set [8] is T1, hMOR. Put plainly: cell-based. The settings on record: for Emax: CHO. Set-up: expressed in transfected cells.
Where [9] appears, read: Table A4, data summary #2, read-out: Alpha2A Ki ± SEM.
[10] abbreviates: Table A4, data summary #2, read-out: MOR Ki ± SEM.
[11] abbreviates: Table A4, data summary #2, read-out: DOR Ki ± SEM.
Where [12] appears, read: Alpha2A Ki ± SEM (nM), Table A4, data summary #2.
[13] abbreviates: DOR Ki ± SEM (nM), Table A1, data summary #1.
Where [14] appears, read: DOR Ki ± SEM (nM), Table A4, data summary #2.

Like-named read-outs stand apart in the source and are kept apart here.

One may read the Ki as a measure of affinity in units of concentration, obtained from inhibition or displacement. As usually defined, the Emax is the size of the effect at its maximum, as opposed to the concentration needed.

T1 sequence (P35372 whole entry): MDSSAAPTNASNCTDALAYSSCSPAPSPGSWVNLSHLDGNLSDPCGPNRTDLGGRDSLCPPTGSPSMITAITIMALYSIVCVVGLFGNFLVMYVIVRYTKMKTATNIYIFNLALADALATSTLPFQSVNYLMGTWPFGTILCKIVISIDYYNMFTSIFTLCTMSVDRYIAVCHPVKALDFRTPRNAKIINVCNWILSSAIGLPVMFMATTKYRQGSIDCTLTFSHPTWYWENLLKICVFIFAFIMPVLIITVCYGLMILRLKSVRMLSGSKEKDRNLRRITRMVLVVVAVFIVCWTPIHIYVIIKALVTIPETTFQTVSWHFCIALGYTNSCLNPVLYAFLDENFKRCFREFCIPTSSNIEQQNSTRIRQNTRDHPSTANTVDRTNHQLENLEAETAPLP
Chain of hKOR (P41145 whole entry): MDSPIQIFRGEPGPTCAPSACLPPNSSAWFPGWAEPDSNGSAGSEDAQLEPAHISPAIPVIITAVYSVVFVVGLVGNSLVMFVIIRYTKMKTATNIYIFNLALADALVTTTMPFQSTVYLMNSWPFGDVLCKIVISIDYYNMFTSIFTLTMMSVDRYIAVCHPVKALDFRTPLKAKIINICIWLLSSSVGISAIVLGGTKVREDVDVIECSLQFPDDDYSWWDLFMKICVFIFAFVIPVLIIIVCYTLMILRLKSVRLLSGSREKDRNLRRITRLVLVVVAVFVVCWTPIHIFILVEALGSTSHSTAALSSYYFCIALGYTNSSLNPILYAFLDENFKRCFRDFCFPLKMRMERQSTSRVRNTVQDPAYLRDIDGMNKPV
Chain of hDOR (P41143 whole entry): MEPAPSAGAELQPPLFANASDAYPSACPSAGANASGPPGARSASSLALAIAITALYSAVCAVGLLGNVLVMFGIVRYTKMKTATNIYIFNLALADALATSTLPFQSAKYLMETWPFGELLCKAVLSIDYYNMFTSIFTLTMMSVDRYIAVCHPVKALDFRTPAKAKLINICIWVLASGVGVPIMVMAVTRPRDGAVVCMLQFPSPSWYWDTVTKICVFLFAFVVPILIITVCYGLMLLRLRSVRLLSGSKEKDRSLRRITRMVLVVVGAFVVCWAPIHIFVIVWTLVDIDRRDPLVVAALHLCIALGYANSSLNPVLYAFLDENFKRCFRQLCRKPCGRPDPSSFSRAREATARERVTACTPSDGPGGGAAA

Turning to `CC[C@@H]1CN2CC[C@@]3(O)C(=Nc4cccc(OC)c43)[C@@H]2C[C@@H]1/C(=C\OC)C(=O)N(C)C` [SUSM-524, (E)-2-((2S,3S,7aS,12bS)-3-ethyl-7a-hydroxy-8-methoxy-1,2,3,4,6,7,7a,12b-octahydroindolo[2,3-a]quinolizin-2-yl)-3-methoxy-N,N-dimethylacrylamide], the “functional activity in cAMP assay” value is listed as “agonist activity” in data set [1] and “agonist” in data set [1] (listed as SUSM 524). Moreover, the Ki in data set [2] (Table A1, data summary #1) was 9150 ± 1100 nM; in data set [2] (Table A4, data summary #2), 9150 ± 1100 nM; in data set [4] (setting [9]), > 10000 nM; in data set [5] (setting [10]), 90 ± 14 nM; in data set [5] (read-out: Ki at hMOR), 110 nM; in data set [6] (setting [11]), 802 ± 212 nM. Also, in data set [3], the “RLM stability” value was <5 min. In data set [5], the “potency at MOR relative to SUSM-501” value stood at 4 fold.
Consider `CC[C@@H]1CN2CCc3c([nH]c4cccc(OC)c34)[C@@H]2C[C@@H]1/C(=C\OC)C(=O)N(C)C` [SUSM-501, (E)-2-((2S,3S,12bS)-3-ethyl-8-methoxy-1,2,3,4,6,7,12,12b-octahydroindolo[2,3-a]quinolizin-2-yl)-3-methoxy-N,N-dimethylacrylamide], for which the “functional activity in cAMP assay” value in data set [1] was “partial agonist activity”; in data set [1] (listed as SUSM 501), “partial agonist”. Also, the Ki in data set [2] (Table A1, data summary #1) was 3070 ± 569 nM; in data set [2] (Table A4, data summary #2) it was 3070 ± 569 nM; in data set [4] (Alpha2A Ki ± SEM (nM), Table A1, data summary #1) it was 1810 ± 319 nM; in data set [4] (setting [12]), 1810 ± 319 nM; in data set [7] it was 420 ± 113 nM; in data set [5] (Table A1, data summary #1, read-out: MOR Ki ± SEM), 429 ± 75.7 nM. Moreover, the results for the Ki in data set [5] (setting [10]), in data set [6] (setting [13]) and in data set [6] (setting [14]) were 429 ± 75.7 nM, 6490 ± 3030 nM and 6490 ± 3030 nM, respectively. Besides, the “Whole liver clearance, CL int, H” value in data set [3] (in vitro intrinsic clearance in RLM scaled to whole organ (rat)) was determined as 128.8 mL/min/kg. The “RLM stability” value in data set [3] was 6 min. Besides, the “functional character at MOR” value in data set [8] is reported as “partial antagonist”. Further, the Emax in data set [8] (read-out: MOR Emax ± SEM (% DAMGO), Table A1, data summary #1) was -4.05 ± 4.03%; in data set [8] (read-out: Emax, functional activity at MOR), -4.05%.
As for `CC[C@@H]1CN2CCc3c([nH]c4cccc(OC)c34)[C@@H]2C[C@@H]1/C(=C\OC)C(=O)N(C)C1CCCC1`, the “functional activity in cAMP assay” value is on record as “antagonists” in data set [1] and “antagonist” in data set [1] (listed as SUSM 522). For the same molecule, the Ki in data set [2] (Table A1, data summary #1) turned out to be 4600 ± 132 nM; in data set [2] (Table A4, data summary #2), 4600 ± 132 nM; in data set [4] (setting [9]), 510 ± 82 nM; in data set [5] (setting [10]), 68 ± 7 nM; in data set [5] (read-out: Ki at hMOR), 67.8 nM; in data set [6] (Table A1, data summary #1, read-out: DOR Ki ± SEM) it was 9750 ± 452 nM. Besides, the Ki in data set [6] (setting [11]) amounted to 6930 ± 1340 nM. The “RLM stability” value in data set [3] is listed as <5 min.
As for `CC[C@@H]1CN2CCc3c([nH]c4cccc(OC)c34)[C@@H]2C[C@@H]1/C(=C\OC)C(=O)N(C)C1CCCCC1` [SUSM-523, (E)-N-cyclohexyl-2-((2S,3S,12bS)-3-ethyl-8-methoxy-1,2,3,4,6,7,12,12b-octahydroindolo[2,3-a]quinolizin-2-yl)-3-methoxy-N-methylacrylamide], the “functional activity in cAMP assay” value was “antagonists” in data set [1] and “antagonist” in data set [1] (listed as SUSM 523). The Ki in data set [2] (Table A1, data summary #1) was 2640 ± 685 nM; in data set [2] (Table A4, data summary #2) it was 1950 ± 611 nM; in data set [4] (setting [12]), 187 ± 29 nM; in data set [5] (setting [10]), 49 ± 14 nM; in data set [5] (read-out: Ki at hMOR), 81.9 nM; in data set [6] (setting [13]), 6490 ± 962 nM. The same molecule had a Ki in data set [6] (setting [14]) of 8290 ± 1020 nM. Besides, the “RLM stability” value in data set [3] is on record as <5 min.
